Read-outs that look alike come from different tables or passages of the source.
Legend:
[1] = target: Porcine Brain Tubulin (Sus scrofa, UniProt P02550+P02554); experiment: Biochemical tubulin polymerization assay; details: maximum velocity of polymerization, FIG. 1; read-out: IC50 of inhibition of tubulin polymerization, biochemical tubulin assay
[2] = system: tubulin polymerization in HCT-116 cells; experiment: Cellular tubulin polymerization assay (HCT-116 cells); format: cell-based
Description: HCT-116 cells (catalog #CCL-247) are obtained from the American Type Culture Collect (ATCC, Manassas, VA). Briefly, cells are grown in McCoy's 5A supplemented with 10% characterized fetal bovine serum (Invitrogen, Carlsbad, CA) and 1% Penicillin/Streptomycin/L-Glutamine at 37° C., 5% CO2, and 95% humidity. Cells are expanded until reaching 70-95% confluency at which point they are sub-cultured or harvested for assay use. 450000 cells are added per well in 1500 μL complete growth medium in a tissue culture treated, 12-well plate. Plates are incubated for 18 to 24 h at 37° C., 5% CO2, and 95% humidity. At the end of the incubation, 2000 μL of base culture media is added to each well, followed by a serial dilution of compound. Plates are incubated for an additional 1 h at 37° C., 5% CO2, and 95% humidity. Lysates are generated by the addition of 100 μL Lysis and Microtubule Stabilization Buffer 1 (LMSO1, Cytoskeleton Inc, Denver, CO) supplemented with GTP (BST06, Cytoskeleton Inc), ATP (BSA04, Cytoskeleton Inc), and Protease Inhibitor Cocktail Stock (PIC02, Cytoskeleton Inc). Cells are scraped off wells using a rubber cell scraper and collected in a clean 96-well plate. Lysates are centrifuged at 1000× g, 37° C. for 10 min and supernatant fraction is placed into an additional 96-well plate. The remaining pellet fraction is reconstituted in 100 μL LMS01 buffer and sonicated for 10 min. Pellet and Supernatant fractions are probed for α-tubulin via western blot analysis on the Jess System or equivalent (Bio-techne, Minneapolis, MN). Data is analyzed using Prism software (Graphpad, San Diego, CA) to calculate IC50 values.

[3] = system: MiaPaca-2 cells; experiment: MiaPaca-2 cell proliferation assay; format: cell-based; details: Homo sapiens, MIA PaCa-2
[4] = system: HCT-116 cells; experiment: HCT-116 cell proliferation assay; format: cell-based; details: Homo sapiens
[5] = target: T1, B-Raf kinase (SEQ ID NO: 1) (Homo sapiens, UniProt P15056); experiment: Biochemical assay for B-Raf (coupled pyruvate kinase/lactate dehydrogenase)
T1 construct: GST (N); purchased Sigma
T1 sequence (P15056 416-766): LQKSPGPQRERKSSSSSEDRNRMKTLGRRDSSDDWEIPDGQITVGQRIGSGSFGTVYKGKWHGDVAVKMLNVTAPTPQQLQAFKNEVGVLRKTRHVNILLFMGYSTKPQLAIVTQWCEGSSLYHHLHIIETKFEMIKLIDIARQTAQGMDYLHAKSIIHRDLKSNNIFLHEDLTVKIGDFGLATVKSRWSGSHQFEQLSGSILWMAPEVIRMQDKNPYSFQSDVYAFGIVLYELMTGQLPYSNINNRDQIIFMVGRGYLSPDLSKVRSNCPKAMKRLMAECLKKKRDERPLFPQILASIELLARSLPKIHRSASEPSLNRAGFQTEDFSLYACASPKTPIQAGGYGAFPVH

[6] = system: Pa16c cells; experiment: Pa16c cell proliferation assay; format: cell-based; details: 67 to 72 h incubation, resazurin; read-out: Pa16c (inhibition of cell proliferation, IC50)
[7] = system: HPAF-II cells; experiment: HPAF-II cell proliferation assay; format: cell-based; details: Homo sapiens
[8] = target: T2, C-Raf kinase (SEQ ID NO: 2) (Homo sapiens, UniProt P04049, Y340D/Y341D); experiment: Biochemical assay for C-Raf (coupled pyruvate kinase/lactate dehydrogenase)
T2 construct: C-Raf residues 306-end; Y340D, Y341D with N-; GST (N); purchased Sigma
T2 sequence (P04049 307-648 Y340D/Y341D): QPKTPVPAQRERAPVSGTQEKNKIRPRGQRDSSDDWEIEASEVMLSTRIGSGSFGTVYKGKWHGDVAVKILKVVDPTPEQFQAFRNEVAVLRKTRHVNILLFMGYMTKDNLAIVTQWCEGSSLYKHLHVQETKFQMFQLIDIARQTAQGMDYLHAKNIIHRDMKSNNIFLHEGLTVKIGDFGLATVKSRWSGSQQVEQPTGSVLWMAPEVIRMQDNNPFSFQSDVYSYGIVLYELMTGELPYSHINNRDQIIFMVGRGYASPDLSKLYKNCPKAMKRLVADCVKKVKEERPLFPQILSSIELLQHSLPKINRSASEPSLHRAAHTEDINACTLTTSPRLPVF

[9] = 67-72 h incubation, resazurin, read-out: MiaPaca-2 (inhibition of cell proliferation, IC50)
[10] = Table 3, mutant KRAS pancreatic cancer cell line, anti-proliferative, read-out: MiaPaca-2
[11] = HCT-116, 67 to 72 h incubation, resazurin, read-out: HCT-116 (inhibition of cell proliferation, IC50)
[12] = Table 3, mutant KRAS colorectal cancer cell line, anti-proliferative, read-out: HCT-116
[13] = 1 mM ATP, read-out: BRAF (inhibition of biochemical activity, IC50)
[14] = HPAF-II, 115 to 120 h incubation, resazurin, read-out: HPAF-II (inhibition of cell proliferation, IC50)
[15] = Table 3, mutant KRAS pancreatic cancer cell line, anti-proliferative, read-out: HPAF-II
[16] = 1 mM ATP, read-out: CRAF (inhibition of biochemical activity, IC50)
[17] = Table 3, HCT-116 cells, read-out: Tubulin Cellular

Sequence of Porcine Brain Tubulin (P02554 whole entry): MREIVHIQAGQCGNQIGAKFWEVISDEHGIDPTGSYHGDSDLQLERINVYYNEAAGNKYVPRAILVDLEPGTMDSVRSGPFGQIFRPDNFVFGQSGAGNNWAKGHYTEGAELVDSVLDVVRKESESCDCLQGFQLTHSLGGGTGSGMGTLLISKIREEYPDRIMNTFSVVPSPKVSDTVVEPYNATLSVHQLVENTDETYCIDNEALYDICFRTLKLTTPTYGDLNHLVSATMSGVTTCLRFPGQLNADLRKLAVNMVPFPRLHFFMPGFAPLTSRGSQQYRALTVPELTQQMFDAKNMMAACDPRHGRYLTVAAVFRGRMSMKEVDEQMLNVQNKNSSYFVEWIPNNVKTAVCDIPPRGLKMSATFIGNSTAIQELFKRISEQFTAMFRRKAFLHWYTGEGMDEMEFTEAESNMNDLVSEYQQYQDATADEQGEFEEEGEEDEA
Sequence of Porcine Brain Tubulin (P02550 whole entry): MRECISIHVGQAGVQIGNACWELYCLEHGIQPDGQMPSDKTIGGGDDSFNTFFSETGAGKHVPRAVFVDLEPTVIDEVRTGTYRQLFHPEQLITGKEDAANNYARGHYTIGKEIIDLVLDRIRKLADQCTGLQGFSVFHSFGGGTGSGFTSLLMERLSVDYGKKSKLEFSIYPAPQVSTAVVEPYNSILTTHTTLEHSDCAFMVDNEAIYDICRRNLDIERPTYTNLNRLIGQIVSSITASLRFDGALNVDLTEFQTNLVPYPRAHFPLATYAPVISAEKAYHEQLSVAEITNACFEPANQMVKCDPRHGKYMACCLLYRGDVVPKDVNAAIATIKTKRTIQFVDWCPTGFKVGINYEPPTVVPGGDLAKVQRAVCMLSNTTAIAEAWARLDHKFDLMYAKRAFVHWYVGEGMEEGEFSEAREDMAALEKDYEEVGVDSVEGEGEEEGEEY

| IC50 [3, 9] | IC50 [3, 10] | IC50 [4, 11] | IC50 [4, 12] | IC50 [5, 13] | IC50 ([5]; Table 3, read-out: BRAF) | IC50 [8, 16] | IC50 ([8]; Table 3, read-out: CRAF) | IC50 [2, 17] | Compound | IC50 [1] | IC50 ([2]; ratio of pellet to supernatant vs DMSO control, HCT-116, FIG. 2, read-out: IC50 of inhibition of tubulin polymerization, cellular tubulin assay) | IC50 [6] | IC50 [7, 14] | IC50 [7, 15] |
| --- | --- | --- | --- | --- | --- | --- | --- | --- | --- | --- | --- | --- | --- | --- |
| – | – | – | – | – | – | – | – | – | CC(C)(C)c1[nH]cnc1/C=c1\[nH]c(=O)/c(=C/c2ccccc2)[nH]c1=O [plinabulin, reference compound] | 2700 nM | 5 nM | – | – | – |
| < 100 nM | < 100 nM | < 100 nM | < 100 nM | 100 to 500 nM | 100 to 500 nM | 100 to 500 nM | 100 to 500 nM | 100 to 500 nM | Cc1ccc(NC(=O)c2cc(C(F)(F)F)cnn2)cc1-c1cc(N2CCOCC2)nc(OCCO)n1 [Example 44] | – | – | < 100 nM | < 100 nM | < 100 nM |
| < 100 nM | < 100 nM | < 100 nM | < 100 nM | < 100 nM | < 100 nM | < 100 nM | < 100 nM | < 100 nM | Cc1ccc(NC(=O)c2cc(C3CCC3)cnn2)cc1-c1cc(N[C@H](C)CO)nc(N2CCOCC2)c1 [Example 48] | – | – | < 100 nM | 500 to 1000 nM | 500 to 1000 nM |
| 100 to 500 nM | 100 to 500 nM | 100 to 500 nM | 100 to 500 nM | < 100 nM | < 100 nM | < 100 nM | < 100 nM | < 100 nM | Cc1ccc(NC(=O)c2cc(C(C)C)cnn2)cc1-c1cc(N[C@H](C)CO)nc(N2CCOCC2)c1 [Example 14] | – | – | 1000 to 10000 nM | 100 to 500 nM | 100 to 500 nM |
| < 100 nM | < 100 nM | < 100 nM | < 100 nM | < 100 nM | < 100 nM | < 100 nM | < 100 nM | < 100 nM | Cc1ccc(NC(=O)c2cc(C(F)(F)F)cnn2)cc1-c1ccnc(N2CC3CCC(C2)O3)c1 [Example 83] | – | – | < 100 nM | < 100 nM | < 100 nM |
| < 100 nM | < 100 nM | 100 to 500 nM | 100 to 500 nM | 100 to 500 nM | 100 to 500 nM | < 100 nM | < 100 nM | 100 to 500 nM | Cc1ccc(NC(=O)c2cc(C(F)(F)F)cnn2)cc1-c1cncc(N2CCOCC2)c1 [Example 27] | – | – | 100 to 500 nM | 100 to 500 nM | 100 to 500 nM |
| < 100 nM | < 100 nM | < 100 nM | < 100 nM | < 100 nM | < 100 nM | < 100 nM | < 100 nM | < 100 nM | Cc1ccc(NC(=O)c2cc(C(F)(F)F)cnn2)cc1-c1cc(OCCO)nc(N2CCOCC2)c1 [Example 6] | – | – | < 100 nM | < 100 nM | < 100 nM |
| < 100 nM | < 100 nM | < 100 nM | < 100 nM | < 100 nM | < 100 nM | < 100 nM | < 100 nM | 100 to 500 nM | Cc1ccc(NC(=O)c2cc(C(C)(C)F)cnn2)cc1-c1cc(OCCO)nc(N2CCOCC2)c1 [Example 34] | – | – | < 100 nM | < 100 nM | < 100 nM |
| < 100 nM | < 100 nM | 100 to 500 nM | 100 to 500 nM | 1000 to 10000 nM | 1000 to 10000 nM | 1000 to 10000 nM | 1000 to 10000 nM | < 100 nM | Cc1ccc(NC(=O)c2cc(C(F)(F)F)cnn2)cc1-c1ccnc(N2CCOCC2)n1 [Example 29] | – | – | 100 to 500 nM | 100 to 500 nM | 100 to 500 nM |

— patent US20250206729A1, “DUAL RAF AND TUBULIN INHIBITORS AND METHODS OF USE THEREOF” (Deciphera Pharmaceuticals, LLC, priority 2023, published 2025)
